Experimental data: patent US20150190388A1, “PHARMACEUTICAL COMPOSITION OF MOXIFLOXACIN HYDROCHLORIDE AND PREPARATION METHOD” (RIVOPHARM SA, priority 2012, published 2015)
Entries after “also recorded” stand apart in the source; their conditions may differ. Where a name gives a salt, the structure may show the parent alone.

Test: Stability of the anhydrous moxifloxacin hydrochloride to humidity and drying (XRPD, water content)
Type: physicochemical
Text: The water contents of the moxifloxacin hydrochloride and of the excipients can be determined using any one of the analytical methods described in the prior art. For example, one may use of the Karl Fisher titration method as described in the European Pharmacopoeia Chapter 2.5.12 (Ph. Eur. 2.5.12) using the Metrohm 7012 KF Titrino® titrator.
The anhydrous moxifloxacin hydrochloride is exposed for several hours to a relative humidity of approximately 40%, which causes an increase in its water content. At the end of the exposure, the water content of the active ingredient is approximately 4% by weight. […] Such results illustrate the low stability of the anhydrous moxifloxacin hydrochloride in the presence of a humidity level of 40%. The conversion of the anhydrous moxifloxacin hydrochloride into a hydrate form becomes significant for a water content above 2%.

water content above which conversion of the anhydrous form into a hydrate form becomes significant: above 2%
water content after drying of the hydrate form obtained (drying for several hours): less than 1 % by weight
water content at the end of the exposure (exposed for several hours to a relative humidity of approximately 40%): approximately 4 % by weight
SMILES: COc1c(N2C[C@@H]3CCCN[C@@H]3C2)c(F)cc2c(=O)c(C(=O)O)cn(C3CC3)c12 [anhydrous moxifloxacin hydrochloride, 1-cyclopropyl-6-fluoro-1,4-dihydro-8-methoxy-7-[(4aS,7aS)-octahydro-6H-pyrrolo[3,4-b]pyridin-6-yl]-4-oxo-3-quinolinecarbolic acid]
polymorphic form by XRPD after drying of the hydrate form (drying for several hours, FIG. 2 curve 2): reconvert the hydrate formed into an anhydrous polymorphic form; also recorded: conversion into the starting anhydrous form
polymorphic form by XRPD after humidity exposure (several hours at relative humidity of approximately 40%, FIG. 2 curve 3): has a tendency to convert into hydrate; also recorded: converted into a hydrate polymorphic form
